Converted amounts (≈) assume the structure as drawn.
How the values were obtained:
E. coli J53-AR13438 = test: MIC by agar dilution, conjugant containing pAR13438_2; assay type: cell-based; settings: Escherichia coli, J53AR13438, E. coli J53-AR13438 (blaCMY-178)
Description: (§1) Antimicrobial susceptibility testing was performed and interpreted according to the Clinical and Laboratory Standards Institute (CLSI) guidelines and breakpoints (M100, 31st edition) by the agar dilution method. E. coli ATCC 25922 and K. pneumoniae ATCC 700603 served as control strains.
(§2) Conjugation experiments were performed by filter mating using sodium-azide-resistant E. coli J53 as the recipient, as described previously. Transconjugants were selected with MH agar containing 100 μg/mL sodium azide and 4 μg/mL ceftazidime-avibactam; furthermore, transconjugants were named J53-AR13438 and J53-KPCZA02, respectively. We compared genomes of AR13438 and J53 to select a unique gene (gtrA) to J53. […] The primers used for PCR were gtrA-F, gtrA-R, CMY-F, and CMY-R (Table S1). The transfer frequencies were calculated as the number of transconjugants (CFU/mL) divided by the number of recipients (CFU/mL). Donors and recipients were mixed at 1:1 for the transfer frequency experiment. S1-PFGE and Southern blotting were performed to define the location of blaCMY-178 and confirm the transmission of the plasmid as described previously ([35]). The MIC profiles of transconjugants were also determined by the agar dilution method.

E. coli DH5α-pCR2.1 = test: MIC by agar dilution, DH5α with blank vector pCR2.1; assay type: cell-based; settings: Escherichia coli
Description: as §1
(§3) The antibiotics we used included meropenem (Hanhui Pharmaceutical Co., Ltd., China), imipenem (Merck Sharp & Dohme Corp., USA), cefepime (Jiangsu Hengrui Pharmaceutical Co., Ltd., China), piperacillin (Suzhou Erye Pharmaceutical Co., Ltd., China), ceftazidime (Guangdong Jincheng Jinsu Pharmaceutical Co., Ltd., China), tazobactam (Meilunbio, China), avibactam (MedChemExpress, USA), aztreonam (Sigma-Aldrich, USA), amikacin (Meilunbio), cefuroxime (Esseti Farmaceutici S.r.l., Italy), fosfomycin (Harbin Pharmaceutical Group Co., Ltd. China), levofloxacin (Daiichi Sankyo Company Limited, Beijing, China), and cefotaxime (North China Pharmaceutical Hebei Huamin Pharmaceutical Co., Ltd., China).
(§4) The blaCMY cloning was performed using a TA cloning kit (Invitrogen, Shanghai, China). The blaCMY-178 gene combined with its predicted promoter was amplified from isolate AR13438. Then, the blaCMY-178 gene was cloned into the linearized vector pCR2.1 using T4 DNA ligase (Invitrogen). The blaCMY-172 gene was cloned from KPCZA02 with the same method. The resulting plasmids were chemically transformed into E. coli DH5α. The positive transformants were identified by blue-white screening in MH agar containing 50 μg/mL kanamycin and were further confirmed by Sanger sequencing. The pCR2.1 blank vector was also transformed into E. coli DH5α as a control. The primers used for cloning were CMY-F and CMY-R (see Table S2 in the supplemental material). Relative CMY expression was measured by reverse transcription-quantitative PCR as described previously ([34]). Specific quantitative PCR (qPCR) primers (q-recA-F/R and q-CMY-F/R) were designed (Table S2).

E. coli J53 = test: MIC by agar dilution, recipient E. coli J53; assay type: cell-based; settings: Escherichia coli
Description: as §1, §3
Conjugation experiments were performed by filter mating using sodium-azide-resistant E. coli J53 as the recipient, as described previously. Transconjugants were selected with MH agar containing 100 μg/mL sodium azide and 4 μg/mL ceftazidime-avibactam; furthermore, transconjugants were named J53-AR13438 and J53-KPCZA02, respectively. We compared genomes of AR13438 and J53 to select a unique gene (gtrA) to J53. The blaCMY-178-postive transconjugants were confirmed by PCR and MALDI-TOF MS (see Fig. S9 in the supplemental material). The primers used for PCR were gtrA-F, gtrA-R, CMY-F, and CMY-R (Table S1). The transfer frequencies were calculated as the number of transconjugants (CFU/mL) divided by the number of recipients (CFU/mL). Donors and recipients were mixed at 1:1 for the transfer frequency experiment. S1-PFGE and Southern blotting were performed to define the location of blaCMY-178 and confirm the transmission of the plasmid as described previously ([35]). The MIC profiles of transconjugants were also determined by the agar dilution method.

E. coli strain AR13438 = test: MIC by agar dilution, clinical isolate AR13438; assay type: cell-based, Escherichia coli; settings: for Antimicrobial susceptibility category: AR13438, CLSI breakpoints (M100, 31st edition); for MIC: Escherichia coli, AR13438, clinical E. coli isolate (blaCMY-178, blaTEM-1, blaCTX-M-27), agar dilution
Description: as §1, §3

E. coli J53-KPCZA02 = test: MIC by agar dilution, conjugant containing pKPCZA02_4; assay type: cell-based; settings: Escherichia coli, J53KPCZA02, E. coli J53-KPCZA02 (blaCMY-172)
Description: as §1, §2

[1] = system: E. coli DH5α-pCR2.1-CMY-172; test: MIC by agar dilution, transformant containing blaCMY-172; assay type: cell-based; settings: Escherichia coli
Description: as §1, §3, §4

E. coli DH5α = test: MIC by agar dilution, E. coli DH5α; assay type: cell-based; settings: Escherichia coli
Description: as §1, §3

[2] = system: K. pneumoniae isolate KPCZA02; test: microbe, parasite or virus in culture; assay type: cell-based; settings: Klebsiella pneumoniae
Description: as §1

[3] = system: E. coli DH5α-pCR2.1-CMY-178; test: MIC by agar dilution, transformant containing blaCMY-178; assay type: cell-based, Escherichia coli; settings: for MIC: Escherichia coli, E. coli DH5α-pCR2.1-CMY-178, agar dilution; for Increase of MIC by blaCMY-178 compared with blaCMY-172: transformants in E. coli DH5α
Description: as §1, §3, §4

[4] = system: E. coli DH5α-pCR2.1-CMY-2; test: MIC by agar dilution, transformant containing blaCMY-2; assay type: cell-based; settings: Escherichia coli

Structure (SMILES)	MIC (E. coli J53-AR13438) [µg/mL]	MIC (E. coli DH5α-pCR2.1) [µg/mL]	MIC (E. coli J53) [µg/mL]	Antimicrobial susceptibility category (E. coli strain AR13438)	MIC (E. coli strain AR13438) [µg/mL]	MIC (E. coli J53-KPCZA02) [µg/mL]	MIC [1] [µg/mL]	MIC (E. coli DH5α) [µg/mL]	MIC [2] [µg/mL]	MIC [3] [µg/mL]	Increase of MIC by blaCMY-178 compared with blaCMY-172 [3]	MIC [4] [µg/mL]
NCC[C@H](O)C(=O)N[C@@H]1C[C@H](N)[C@@H](O[C@H]2O[C@H](CN)[C@@H](O)[C@H](O)[C@H]2O)[C@H](O)[C@H]1O[C@H]1O[C@H](CO)[C@@H](O)[C@H](N)[C@H]1O [AMK, amikacin]	2 (≈ 3.42 µM)	1 (≈ 1.71 µM)	2 (≈ 3.42 µM)	resistant	> 256	2 (≈ 3.42 µM)	2 (≈ 3.42 µM)	1 (≈ 1.71 µM)	> 256	–	–	–
C[C@H]1[C@H](NC(=O)/C(=N\OC(C)(C)C(=O)O)c2csc(N)n2)C(=O)N1S(=O)(=O)O [ATM, aztreonam]	32 (≈ 73.5 µM)	0.12 (≈ 0.276 µM)	0.12 (≈ 0.276 µM)	–	32 (≈ 73.5 µM)	–	8 (≈ 18.4 µM)	0.06 (≈ 0.138 µM)	–	32 (≈ 73.5 µM)	4 fold	32 (≈ 73.5 µM)
CC(C)(O/N=C(\C(=O)N[C@@H]1C(=O)N2C(C(=O)[O-])=C(C[N+]3(CCNC(=O)c4ccc(O)c(O)c4Cl)CCCC3)CS[C@H]12)c1csc(N)n1)C(=O)O [CFDC, cefiderocol]	–	< 0.03	–	susceptible	0.25 (≈ 0.332 µM)	–	1 (≈ 1.33 µM)	< 0.03	1 (≈ 1.33 µM)	1 (≈ 1.33 µM)	–	0.125 (≈ 0.166 µM)
CO/N=C(\C(=O)N[C@@H]1C(=O)N2C(C(=O)O)=C(COC(C)=O)CS[C@H]12)c1csc(N)n1 [CTX, cefotaxime]	32 (≈ 70.3 µM)	0.06 (≈ 0.132 µM)	0.06 (≈ 0.132 µM)	–	> 128	16 (≈ 35.1 µM)	32 (≈ 70.3 µM)	0.03 (≈ 0.0659 µM)	> 128	128 (≈ 281 µM)	4 fold	32 (≈ 70.3 µM)
CO/N=C(\C(=O)N[C@@H]1C(=O)N2C(C(=O)O)=C(COC(N)=O)CS[C@H]12)c1ccco1 [CXM, cefuroxime]	256 (≈ 603 µM)	4 (≈ 9.43 µM)	16 (≈ 37.7 µM)	–	> 1020	256 (≈ 603 µM)	64 (≈ 151 µM)	4 (≈ 9.43 µM)	> 1020	1020 (≈ 2410 µM)	over 4 fold	128 (≈ 302 µM)
CO/N=C(\C(=O)N[C@@H]1C(=O)N2C(C(=O)[O-])=C(C[N+]3(C)CCCC3)CS[C@H]12)c1csc(N)n1 [FEP, cefepime]	32 (≈ 66.6 µM)	0.12 (≈ 0.25 µM)	0.06 (≈ 0.125 µM)	–	128 (≈ 266 µM)	32 (≈ 66.6 µM)	16 (≈ 33.3 µM)	0.06 (≈ 0.125 µM)	> 128	64 (≈ 133 µM)	4 fold	2 (≈ 4.16 µM)

— paper PMC10100771, “A Novel CMY Variant Confers Transferable High-Level Resistance to Ceftazidime-Avibactam in Multidrug-Resistant Escherichia coli” (Microbiology Spectrum, 2023)
